The record followed here is patent US20190336489A1, “NON PEPTIDE HETEROBIVALENT MOLECULES FOR TREATING INFLAMMATORY DISEASES” (GLAXOSMITHKLINE INTELLECTUAL PROPERTY DEVELOPMENT LIMITED, priority 2017, published 2019).

For the assay, the target named is T1, CCR2 (Homo sapiens, UniProt P41597).
T1 construct: expressed in transfected cells; host or cells: CHOK1
Description: Antibody Dependent Cellular Cytotoxicity (ADCC) reporter assay, CCR2 target cells. The format is cell-based. As to conditions: for ADCC efficacy: maximum signal:background (S/B). An excerpt: The compounds described herein have been characterized in an ADCC reporter assay (see Section 1.2 ADCC reporter for protocol). […] Furthermore, the assay also confirms that this formed complex can engage and activate the Fc receptors on immune cells. Lastly, the assay provides both potency (EC50) and efficacy (signal to background ratio) for each compound in a dose dependant manner.
This assay has four components • 1) Heterobivalent Compound consisting of a targeting ligand and a hapten connected by a linker (ranging from 10 uM-1 pM) • 2) A hapten antibody with functional Fc domain (typical concentrations are 0.01 ug/mL-200 ug/mL) • 3) Target cells—CHOK1 cells engineered to overexpress either CCR1, CCR2, or CCR3, or CEMNKR cells engineered to overexpress CCR5 (typically 1000-20,000 cells per well) • 4) Reporter cells—Jurkat cells engineered to express FcgRIIIa (ADCC reporter assay) and with a reporter gene (luciferase) under the control of the NFAT promoter (typically 3000-75,000 cells per well)
Reagents are combined in final volume of 20 uL in 384-well tissue culture treated plated.
All components are incubated together for ˜12-18 hours. Add BioGlo Detection reagent (from Promega) to lyse the cells and provide substrate for the luciferase reporter protein. Signal is measured on a microplate reader capable of measuring luminescence. Signal:Background is calculated by dividing the signal of a test well by the signal obtained when no compound is included in the assay. EC50 calculations were done using Graphpad Prism Software, specifically a nonlinear regression curve fit (Y=Bottom+(Top−Bottom)/(1+10^((Log EC50−X)*HillSlope)))

[1] abbreviates: CHOK1 cells overexpressing CCR2, Jurkat FcgRIIIa NFAT-luciferase reporter cells, EC50 class.
Where [2] appears, read: CHOK1 cells overexpressing CCR2.
[3] abbreviates: CHOK1 cells overexpressing CCR2, Jurkat FcgRIIIa NFAT-luciferase reporter cells, EC50 class, read-out: ADCC potency.

Like-named read-outs stand apart in the source and are kept apart here. Marks after values point to notes of the source that are not given here.

T1 sequence (P41597 whole entry, species assumed): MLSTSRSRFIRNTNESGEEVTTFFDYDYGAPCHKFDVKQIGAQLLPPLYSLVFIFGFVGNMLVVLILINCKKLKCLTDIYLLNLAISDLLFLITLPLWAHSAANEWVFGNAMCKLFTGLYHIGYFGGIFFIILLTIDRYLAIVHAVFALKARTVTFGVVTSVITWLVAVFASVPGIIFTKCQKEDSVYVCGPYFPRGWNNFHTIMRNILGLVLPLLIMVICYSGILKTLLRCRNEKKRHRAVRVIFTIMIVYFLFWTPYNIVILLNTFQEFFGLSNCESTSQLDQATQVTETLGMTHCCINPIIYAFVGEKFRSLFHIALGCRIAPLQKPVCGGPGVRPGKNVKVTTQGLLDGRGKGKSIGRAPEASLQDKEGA

Consider `O=C(NCC(=O)N1CC[C@H](NC2CCC(O)(c3ccc(-c4ncccn4)cn3)CC2)C1)c1cc(OCCOCCOCCOCCOCCOCCOCCOCCOCCOCCNc2ccc([N+](=O)[O-])cc2[N+](=O)[O-])cc(C(F)(F)F)c1` (single isomer, unassigned) [Compound 16], for which the ADCC potency result under setting [1] was “+++ (pEC50 ≥ 9 = +++)”. In addition, under setting [2], the ADCC efficacy entry is “++^e (>5 = ++)”.

`O=C(NCC(=O)N1CC[C@H](NC2CCC(O)(c3ccc(-c4ncccn4)cn3)CC2)C1)c1cc(OCCOCCOCCOCCOCCOCCOCCOCCOCCOCCNc2ccc([N+](=O)[O-])cc2[N+](=O)[O-])cc(C(F)(F)F)c1` (single isomer, unassigned) [Compound 17]: the ADCC potency entry under setting [1] was “+++ (pEC50 ≥ 9 = +++)”. Moreover, the ADCC efficacy result under setting [2] is “+++^e (Maximum Signal:Background > 10 = +++)”.

In the case of `CC(C)(C)N1CCNC(C(=O)N2CCN(C(=O)Nc3ccc(Cl)c(F)c3)C(CCOC(=O)NCCOCCOCCOCCOCCOCCOCCOCCOCCOCCNc3ccc([N+](=O)[O-])cc3[N+](=O)[O-])C2)C1` (single isomer, unassigned) [Compound 19, 2-(4-(4-(Tert-butyl)piperazine-2-carbonyl)-1-((4-chloro-3-fluorophenyl)carbamoyl)piperazin-2-yl)ethyl (29-((2,4-dinitrophenyl)amino)-3,6,9,12,15,18,21,24,27-nonaoxanonacosyl)carbamate], the EC50 under setting [3] is less than 1 nM. Moreover, the ADCC efficacy result under setting [2] is listed as “+++^e (Maximum Signal:Background > 10 = +++)”.

As to `CC(C)[C@]1(C(=O)N2CCc3nc(CCCCOc4ccc(C(=O)NCCOCCOCCOCCOCCOCCOCCOCCOCCOCCNc5ccc([N+](=O)[O-])cc5[N+](=O)[O-])cc4)c(C(F)(F)F)cc3C2)CC[C@@H](NC2CCOCC2)C1` [Compound 6, N-(29-((2,4-dinitrophenyl)amino)-3,6,9,12,15,18,21,24,27-nonaoxanonacosyl)-4-(4-(6-((1S,3R)-1-isopropyl-3-((tetrahydro-2H-pyran-4-yl)amino)cyclopentanecarbonyl)-3-(trifluoromethyl)-5,6,7,8-tetrahydro-1,6-naphthyridin-2-yl)butoxy)benzamide], under setting [3], the EC50 is less than 1 nM. For the same molecule, the ADCC efficacy result under setting [2] is listed as “+++^e (Maximum Signal:Background > 10 = +++)”.

`CC(C)[C@]1(C(=O)N2CCc3nc(CCCCOc4cccc(C(=O)NCCOCCOCCOCCOCCOCCOCCOCCOCCOCCNc5ccc([N+](=O)[O-])cc5[N+](=O)[O-])c4)c(C(F)(F)F)cc3C2)CC[C@@H](NC2CCOCC2)C1` [Compound 7, N-(29-((2,4-dinitrophenyl)amino)-3,6,9,12,15,18,21,24,27-nonaoxanonacosyl)-3-(4-(6-((1S,3R)-1-isopropyl-3-((tetrahydro-2H-pyran-4-yl)amino)cyclopentanecarbonyl)-3-(trifluoromethyl)-5,6,7,8-tetrahydro-1,6-naphthyridin-2-yl)butoxy)benzamide]: the EC50 under setting [3] is less than 1 nM. Also, the ADCC efficacy entry under setting [2] was “+++^e (Maximum Signal:Background > 10 = +++)”.

With `Cc1ccc2c(c1)NC[C@]21CCN(C[C@@H](O)C2CCN(C(=O)c3cc4cc(OCCOCCOCCOCCNC(=O)CCC(=O)NCCOCCOCCOCCNc5ccc([N+](=O)[O-])cc5[N+](=O)[O-])ccc4[nH]3)CC2)C[C@H]1C` [Compound 8, N1-(2-(2-(2-(2-((2-(4-((S)-2-((3S,3′S)-3′,6-Dimethylspiro[indoline-3,4′-piperidin]-1′-yl)-1-hydroxyethyl)piperidine-1-carbonyl)-1H-indol-5-yl)oxy)ethoxy)ethoxy)ethoxy)ethyl)-N4-(2-(2-(2-(2-((2,4-dinitrophenyl)amino)ethoxy)ethoxy)ethoxy)ethyl)succinamide], under setting [3], the EC50 is 10 to 100 nM. Also, the ADCC efficacy entry under setting [2] is reported as “+++^e (Maximum Signal:Background > 10 = +++)”.

In the case of `Cc1ccc2c(c1)NC[C@]21CCN(C[C@@H](O)C2CCN(C(=O)/C=C/c3cc(F)cc(OCCOCCOCCOCCOCCOCCOCCOCCOCCOCCNc4ccc([N+](=O)[O-])cc4[N+](=O)[O-])c3)CC2)C[C@H]1C` [Compound 9, (E)-1-(4-((S)-2-((3S,3′S)-3′,6-Dimethylspiro[indoline-3,4′-piperidin]-1′-yl)-1-hydroxyethyl)piperidin-1-yl)-3-(3-((29-((2,4-dinitrophenyl)amino)-3,6,9,12,15,18,21,24,27-nonaoxanonacosyl)oxy)-5-fluorophenyl)prop-2-en-1-one], the EC50 under setting [3] is less than 1 nM. Moreover, the ADCC efficacy result under setting [2] is given as “+++^e (Maximum Signal:Background > 10 = +++)”.

In the case of `Cc1ccc2c(c1)NC[C@]21CCN(C[C@@H](O)C2CCN(C(=O)c3cc4cc(Oc5ccc(C(=O)NCCOCCOCCOCCOCCOCCOCCOCCOCCOCCNc6ccc([N+](=O)[O-])cc6[N+](=O)[O-])cc5)ccc4[nH]3)CC2)C[C@H]1C` [Compound 10, 4-((2-(4-((S)-2-((3S,3′S)-3′,6-Dimethylspiro[indoline-3,4′-piperidin]-1′-yl)-1-hydroxyethyl)piperidine-1-carbonyl)-1H-indol-5-yl)oxy)-N-(29-((2,4-dinitrophenyl)amino)-3,6,9,12,15,18,21,24,27-nonaoxanonacosyl)benzamide], the EC50 under setting [3] was 1 to 10 nM. Under setting [2], the ADCC efficacy result is recorded as “+++^e (Maximum Signal:Background > 10 = +++)”.

`Cc1ccc2c(c1)NC[C@]21CCN(C[C@@H](O)C2CCN(c3ncc(-c4cccc(C(=O)NCCOCCOCCOCCOCCOCCOCCOCCOCCOCCNc5ccc([N+](=O)[O-])cc5[N+](=O)[O-])c4)o3)CC2)C[C@H]1C` [Compound 11, 3-(2-(4-((S)-2-((3S,3′S)-3′,6-Dimethylspiro[indoline-3,4′-piperidin]-1′-yl)-1-hydroxyethyl)piperidin-1-yl)oxazol-5-yl)-N-(29-((2,4-dinitrophenyl)amino)-3,6,9,12,15,18,21,24,27-nonaoxanonacosyl)benzamide]: the EC50 under setting [3] was 10 to 100 nM. In addition, the ADCC efficacy entry under setting [2] is reported as “+++^e (Maximum Signal:Background > 10 = +++)”.

On to `Cc1ccc2c(c1)NC[C@]21CCN(C[C@@H](O)C2CCN(C(=O)c3cc4ccc(Oc5ccc(C(=O)NCCOCCOCCOCCOCCOCCOCCOCCOCCOCCNc6ccc([N+](=O)[O-])cc6[N+](=O)[O-])cc5)cc4[nH]3)CC2)C[C@H]1C` [Compound 12, 4-((2-(4-((S)-2-((3S,3′S)-3′,6-Dimethylspiro[indoline-3,4′-piperidin]-1′-yl)-1-hydroxyethyl)piperidine-1-carbonyl)-1H-indol-6-yl)oxy)-N-(29-((2,4-dinitrophenyl)amino)-3,6,9,12,15,18,21,24,27-nonaoxanonacosyl)benzamide], for which the EC50 under setting [3] was less than 1 nM. The ADCC efficacy entry under setting [2] is reported as “+++^e (Maximum Signal:Background > 10 = +++)”.

The molecule `Cc1ccc2c(c1)NC[C@]21CCN(C[C@@H](O)C2CCN(C(=O)c3cc4ccc(OCCOCCOCCOCCNC(=O)CCC(=O)NCCOCCOCCOCCNc5ccc([N+](=O)[O-])cc5[N+](=O)[O-])cc4[nH]3)CC2)C[C@H]1C` [Compound 13, N1-(2-(2-(2-(2-((2-(4-((S)-2-((3S,3′S)-3′,6-Dimethylspiro[indoline-3,4′-piperidin]-1′-yl)-1-hydroxyethyl)piperidine-1-carbonyl)-1H-indol-6-yl)oxy)ethoxy)ethoxy)ethoxy)ethyl)-N4-(2-(2-(2-(2-((2,4-dinitrophenyl)amino)ethoxy)ethoxy)ethoxy)ethyl)succinamide] had an EC50 of 1 to 10 nM. In addition, the ADCC efficacy result under setting [2] is reported as “+++^e (Maximum Signal:Background > 10 = +++)”.

`Cc1ccc2c(c1)NC[C@]21CCN(C[C@@H](O)C2CCN(C(=O)c3cc4c(OCCOCCOCCOCCNC(=O)CCC(=O)NCCOCCOCCOCCNc5ccc([N+](=O)[O-])cc5[N+](=O)[O-])cccc4[nH]3)CC2)C[C@H]1C` [Compound 14, N1-(2-(2-(2-(2-((2-(4-((S)-2-((3S,3′S)-3′,6-dimethylspiro[indoline-3,4′-piperidin]-1′-yl)-1-hydroxyethyl)piperidine-1-carbonyl)-1H-indol-4-yl)oxy)ethoxy)ethoxy)ethoxy)ethyl)-N4-(2-(2-(2-(2-((2,4-dinitrophenyl)amino)ethoxy)ethoxy)ethoxy)ethyl)succinamide] showed an EC50 of 100 to 1000 nM. Moreover, the ADCC efficacy result under setting [2] was “++^e (>5 = ++)”.

With `Cc1ccc2c(c1)NC[C@]21CCN(C[C@@H](O)C2CCN(C(=O)c3cc4ccc(Oc5ccc(C(=O)N6CCN(CCCNc7ccc([N+](=O)[O-])cc7[N+](=O)[O-])CC6)cc5)cc4[nH]3)CC2)C[C@H]1C` [Compound 15, (4-((S)-2-((3S,3′S)-3′,6-Dimethylspiro[indoline-3,4′-piperidin]-1′-yl)-1-hydroxyethyl)piperidin-1-yl)(6-(4-(4-(3-((2,4-dinitrophenyl)amino)propyl)piperazine-1-carbonyl)phenoxy)-1H-indol-2-yl)methanone], the EC50 under setting [3] fell in the range of 1 to 10 nM. Moreover, the ADCC efficacy result under setting [2] is listed as “+++^e (Maximum Signal:Background > 10 = +++)”.
